This note sets out measurements from patent US9056843B2, “Trifluoromethyl-oxadiazole derivatives and their use in the treatment of disease” (NOVARTIS AG, priority 2011, dated 2015).

What all share (assay type): biochemical
The target of one experiment is Human recombinant HDAC4 (Homo sapiens (Human), UniProt P56524). As to the kind of experiment: Test 2: HDAC4 assay (fluorogenic substrate, 5 μM acetyl-Gly-Ala-Lys(ε-trifluoroacetyl)-AMC). The settings on record: Test 2 (values without asterisk). Here is the method:
Test 2: HDAC4 Assay Description
(§1) Control wells with HDAC4 only (positive control) and without HDAC4 (negative control) were included on the microplate. Bovine trypsin (4.5 μl of a 300 nM solution) was added and the plate incubated for additional 15 minutes at room temperature. The plate was placed in a fluorescence microplate reader, and read at an excitation wavelength of 360 nm and an emission wavelength of 450 nm with a 10 nm bandpath. Fluorescence values for all wells containing HDAC4 (positive control and wells with test compound) were corrected by subtracting negative control fluorescence values, and IC50 values were calculated by fitting the dose-response curves to a 4-parameter logistic function.

Experiment [1] addresses Human recombinant full length HDAC6 (Homo sapiens (Human), UniProt Q9UBN7). Kind of experiment: Test 4: HDAC6 assay. As to conditions: Test 4; substrate 5 μM acetyl-Gly-Ala-Lys(acetyl)-AMC. The protocol:
as §1
Test 4: HDAC6 Assay Description
A similar assay procedure as described in Test 2 was used for HDAC6. Human recombinant full length HDAC6 expressed in a baculovirus expression system was purchased from BPS BioSciences (San Diego, Calif., U.S.A.). The substrate used in the […] assay was 5 μM of acetyl-Gly-Ala-Lys(acetyl)-AMC.

For experiment [2], the target named is Human recombinant full length HDAC1 (Homo sapiens (Human), UniProt Q13547). Kind of experiment: Test 3: HDAC1 assay. As to conditions: substrate 5 μM acetyl-Gly-Ala-Lys(acetyl)-AMC. The protocol:
as §1
Test 3: HDAC1 Assay Description
A similar assay procedure as described in Test 2 was used for HDAC1. Human recombinant full length HDAC1 expressed in a baculovirus expression system was purchased from BPS BioSciences (San Diego, Calif., U.S.A.). The substrate used in the […] assay was 5 μM of acetyl-Gly-Ala-Lys(acetyl)-AMC.

The structures appear in SMILES notation. Some results are limits rather than exact numbers.

Human recombinant full length HDAC1, sequence (Q13547 whole entry): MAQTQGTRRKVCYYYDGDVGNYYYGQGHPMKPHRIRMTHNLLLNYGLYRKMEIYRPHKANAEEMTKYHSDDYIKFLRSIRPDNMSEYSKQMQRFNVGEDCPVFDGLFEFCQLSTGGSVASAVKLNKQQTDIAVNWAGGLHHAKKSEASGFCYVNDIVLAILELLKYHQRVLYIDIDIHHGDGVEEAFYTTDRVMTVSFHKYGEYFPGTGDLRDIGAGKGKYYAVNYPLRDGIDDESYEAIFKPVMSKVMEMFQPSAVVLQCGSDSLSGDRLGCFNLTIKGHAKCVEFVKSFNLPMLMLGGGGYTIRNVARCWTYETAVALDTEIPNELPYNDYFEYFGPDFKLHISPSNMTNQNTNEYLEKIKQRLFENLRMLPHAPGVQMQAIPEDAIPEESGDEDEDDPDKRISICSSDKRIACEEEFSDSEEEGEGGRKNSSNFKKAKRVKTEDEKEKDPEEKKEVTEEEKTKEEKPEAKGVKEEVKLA
Human recombinant full length HDAC6, sequence (Q9UBN7 whole entry): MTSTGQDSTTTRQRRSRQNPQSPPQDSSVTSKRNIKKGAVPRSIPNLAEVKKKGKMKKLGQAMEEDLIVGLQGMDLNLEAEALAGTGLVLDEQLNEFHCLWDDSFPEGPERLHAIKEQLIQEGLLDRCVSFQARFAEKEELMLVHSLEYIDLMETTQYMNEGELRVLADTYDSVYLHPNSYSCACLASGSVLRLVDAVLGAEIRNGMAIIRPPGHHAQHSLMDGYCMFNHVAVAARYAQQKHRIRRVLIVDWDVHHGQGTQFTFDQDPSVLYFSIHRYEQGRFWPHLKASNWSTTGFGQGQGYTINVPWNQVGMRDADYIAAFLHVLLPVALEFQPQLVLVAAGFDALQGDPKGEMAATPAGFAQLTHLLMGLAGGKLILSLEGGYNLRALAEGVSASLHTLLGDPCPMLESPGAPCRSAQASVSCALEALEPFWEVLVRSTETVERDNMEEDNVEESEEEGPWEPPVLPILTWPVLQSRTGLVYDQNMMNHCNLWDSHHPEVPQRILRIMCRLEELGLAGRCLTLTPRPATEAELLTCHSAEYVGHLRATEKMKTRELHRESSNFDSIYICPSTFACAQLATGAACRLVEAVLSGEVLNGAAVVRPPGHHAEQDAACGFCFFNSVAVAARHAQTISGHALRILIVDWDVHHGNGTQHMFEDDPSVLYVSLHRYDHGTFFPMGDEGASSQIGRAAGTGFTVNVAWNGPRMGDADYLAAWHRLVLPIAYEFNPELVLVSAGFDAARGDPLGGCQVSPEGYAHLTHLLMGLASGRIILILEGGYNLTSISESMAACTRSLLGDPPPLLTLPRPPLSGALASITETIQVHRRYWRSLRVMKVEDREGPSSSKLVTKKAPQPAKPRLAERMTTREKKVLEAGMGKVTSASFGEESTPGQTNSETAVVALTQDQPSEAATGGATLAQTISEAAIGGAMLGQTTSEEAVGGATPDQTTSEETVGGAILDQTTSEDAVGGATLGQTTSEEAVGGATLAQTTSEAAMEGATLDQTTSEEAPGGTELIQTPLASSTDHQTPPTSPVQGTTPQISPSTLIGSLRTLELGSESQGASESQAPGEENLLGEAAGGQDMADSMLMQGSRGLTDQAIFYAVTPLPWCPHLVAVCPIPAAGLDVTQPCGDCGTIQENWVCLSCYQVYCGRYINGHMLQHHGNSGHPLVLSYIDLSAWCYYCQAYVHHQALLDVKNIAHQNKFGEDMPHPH
Human recombinant HDAC4, sequence (P56524 2-1084): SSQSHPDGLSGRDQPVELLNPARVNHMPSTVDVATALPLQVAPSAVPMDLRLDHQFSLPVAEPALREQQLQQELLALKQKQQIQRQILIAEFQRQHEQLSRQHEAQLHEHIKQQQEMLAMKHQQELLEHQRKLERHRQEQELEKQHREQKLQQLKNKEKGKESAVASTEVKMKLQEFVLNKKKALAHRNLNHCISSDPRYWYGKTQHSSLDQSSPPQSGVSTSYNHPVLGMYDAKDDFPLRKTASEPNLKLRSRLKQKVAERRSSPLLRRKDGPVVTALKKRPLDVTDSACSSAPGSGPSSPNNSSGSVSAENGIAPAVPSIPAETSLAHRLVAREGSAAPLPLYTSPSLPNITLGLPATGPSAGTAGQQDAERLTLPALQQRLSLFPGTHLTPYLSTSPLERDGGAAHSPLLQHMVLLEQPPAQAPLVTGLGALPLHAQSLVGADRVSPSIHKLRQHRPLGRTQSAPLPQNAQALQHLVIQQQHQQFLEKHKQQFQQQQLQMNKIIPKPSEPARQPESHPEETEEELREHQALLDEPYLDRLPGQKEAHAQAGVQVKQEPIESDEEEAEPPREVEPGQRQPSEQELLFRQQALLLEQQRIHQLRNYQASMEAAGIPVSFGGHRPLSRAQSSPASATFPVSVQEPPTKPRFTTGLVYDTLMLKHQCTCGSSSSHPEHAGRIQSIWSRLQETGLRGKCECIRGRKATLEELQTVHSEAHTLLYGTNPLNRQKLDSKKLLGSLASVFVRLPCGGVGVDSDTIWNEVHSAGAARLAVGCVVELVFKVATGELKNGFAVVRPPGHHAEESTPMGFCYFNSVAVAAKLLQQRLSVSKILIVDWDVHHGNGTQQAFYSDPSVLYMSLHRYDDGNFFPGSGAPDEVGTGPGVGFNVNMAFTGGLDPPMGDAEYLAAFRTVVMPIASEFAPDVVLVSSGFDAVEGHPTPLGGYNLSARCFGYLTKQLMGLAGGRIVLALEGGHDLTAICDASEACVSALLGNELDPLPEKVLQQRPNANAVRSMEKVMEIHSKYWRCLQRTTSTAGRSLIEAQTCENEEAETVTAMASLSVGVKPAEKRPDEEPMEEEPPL

Usually IC50 stands for the point on the concentration scale where inhibition reaches its midpoint. In the case of `CN(C)C[C@@H](Cc1ccccc1)NC(=O)c1ccc(-c2noc(C(F)(F)F)n2)cc1F` [Example 118, (R)—N-(1-(dimethylamino)-3-phenylpropan-2-yl)-2-fluoro-4-(5-(trifluoromethyl)-1,2,4-oxadiazol-3-yl)benzamide], the IC50 is 0.22 µM on Human recombinant HDAC4, 4.7 µM in experiment [1] and more than 10 µM in experiment [2].
With `O=S(=O)(Nc1ccccc1Cl)c1ccc(-c2noc(C(F)(F)F)n2)cc1` [Example 104, N-(2-chlorophenyl)-4-(5-(trifluoromethyl)-1,2,4-oxadiazol-3-yl)benzenesulfonamide], the 50% inhibitory concentration (IC50) at Human recombinant HDAC4 was 0.84 µM; in experiment [1] it was 0.77 µM; in experiment [2], more than 10 µM.
Regarding `C[C@H](CN1CCOCC1)NC(=O)c1ccc(-c2noc(C(F)(F)F)n2)cc1` [Example 147, (R)—N-(1-morpholinopropan-2-yl)-4-(5-(trifluoromethyl)-1,2,4-oxadiazol-3-yl)benzamide], the figures for the IC50 (at Human recombinant HDAC4; in experiment [1]; in experiment [2]) were 0.3 µM, 6.7 µM and more than 10 µM, respectively.
In the same order, the values of `C[C@H](CN1CCOCC1)NC(=O)c1ccc(-c2noc(C(F)(F)F)n2)cc1F` [Example 148, (R)-2-fluoro-N-(1-morpholinopropan-2-yl)-4-(5-(trifluoromethyl)-1,2,4-oxadiazol-3-yl)benzamide] are 0.38 µM, 3.2 µM and more than 10 µM.
In the same order, the values of `NC1CCCCC1NC(=O)c1ccc(-c2noc(C(F)(F)F)n2)cc1` (stereo not drawn) [Example 77, N-(2-aminocyclohexyl)-4-(5-(trifluoromethyl)-1,2,4-oxadiazol-3-yl)benzamide] are 0.35 µM, more than 10 µM and more than 10 µM.
In the case of `CN(CCO)C(=O)c1ccc(-c2noc(C(F)(F)F)n2)cc1` [Example 15, N-(2-hydroxyethyl)-N-methyl-4-(5-(trifluoromethyl)-1,2,4-oxadiazol-3-yl)benzamide], the half-maximal inhibitory concentration (IC50) on Human recombinant HDAC4 is 0.99 µM; in experiment [1], more than 10 µM; in experiment [2], more than 10 µM.
Consider `CCCN(CC)C[C@@H](C)NC(=O)c1ccc(-c2noc(C(F)(F)F)n2)cc1` [Example 145, (R)—N-(1-(ethyl(propyl)amino)propan-2-yl)-4-(5-(trifluoromethyl)-1,2,4-oxadiazol-3-yl)benzamide], for which the IC50 stood at 0.00075 µM on Human recombinant HDAC4, 3.7 µM in experiment [1] and 2.4 µM in experiment [2].
As for `CCN(CC)C[C@H](NC(=O)c1ccc(-c2noc(C(F)(F)F)n2)cc1F)C(C)C` [Example 135, (R)—N-(1-(diethylamino)-3-methylbutan-2-yl)-2-fluoro-4-(5-(trifluoromethyl)-1,2,4-oxadiazol-3-yl)benzamide], the IC50 at Human recombinant HDAC4 is 0.01 µM; in experiment [1], more than 10 µM; in experiment [2], more than 10 µM.
For `O=C(NCC1CC1)c1ccc(-c2noc(C(F)(F)F)n2)cc1` [Example 26, N-(cyclopropylmethyl)-4-(5-(trifluoromethyl)-1,2,4-oxadiazol-3-yl)benzamide], the IC50 at Human recombinant HDAC4 was 0.61 µM; in experiment [1], 3.2 µM; in experiment [2] it was more than 10 µM.
In the case of `COc1cc(NC(=O)c2ccc(-c3noc(C(F)(F)F)n3)cc2)ccn1` [Example 67, N-(2-methoxypyridin-4-yl)-4-(5-(trifluoromethyl)-1,2,4-oxadiazol-3-yl)benzamide], the values for the IC50 (on Human recombinant HDAC4; in experiment [1]; in experiment [2]) were 0.16 µM, 8.3 µM and more than 10 µM, respectively.
On to `CCN(CC)C[C@H](C)NC(=O)c1ccc(-c2noc(C(F)(F)F)n2)cc1F` [Example 127, (S)—N-(1-(diethylamino)propan-2-yl)-2-fluoro-4-(5-(trifluoromethyl)-1,2,4-oxadiazol-3-yl)benzamide], for which the half-inhibitory concentration (IC50) on Human recombinant HDAC4 is 0.044 µM; in experiment [1] it was more than 10 µM; in experiment [2], more than 10 µM.
Take `CN(C)C(=O)c1ccc(-c2noc(C(F)(F)F)n2)cc1` [Example 1, N,N-dimethyl-4-(5-(trifluoromethyl)-1,2,4-oxadiazol-3-yl)benzamide]: the values for the IC50 (on Human recombinant HDAC4; in experiment [1]; in experiment [2]) were 0.36 µM, more than 10 µM and more than 10 µM, respectively.
As to `C[C@H](CN1CCCC1)NC(=O)c1ccc(-c2noc(C(F)(F)F)n2)cc1` [Example 130, (R)—N-(1-(pyrrolidin-1-yl)propan-2-yl)-4-(5-(trifluoromethyl)-1,2,4-oxadiazol-3-yl)benzamide], the concentration for half-maximal inhibition (IC50) on Human recombinant HDAC4 was 0.011 µM; in experiment [1] it was 9.1 µM; in experiment [2], more than 10 µM.
For the molecule `CCN(C)C[C@@H](C)NC(=O)c1ccc(-c2noc(C(F)(F)F)n2)cc1` [Example 136, (R)—N-(1-(ethyl(methyl)amino)propan-2-yl)-4-(5-(trifluoromethyl)-1,2,4-oxadiazol-3-yl)benzamide], the figures for the IC50 (on Human recombinant HDAC4; in experiment [1]; in experiment [2]) were 0.0089 µM, more than 10 µM and more than 10 µM, respectively.
Regarding `CC(C)NC(=O)Cc1ccc(-c2noc(C(F)(F)F)n2)cc1` [Example 5, N-Isopropyl-2-[4-(5-trifluoromethyl-[1,2,4]oxadiazol-3-yl)-phenyl]-acetamide], the IC50 on Human recombinant HDAC4 is 0.97 µM; in experiment [1] it was 3.1 µM; in experiment [2] it was more than 10 µM.
As for `CN(C)C[C@@H](Cc1ccccc1)NC(=O)c1ccc(-c2noc(C(F)(F)F)n2)cc1` [Example 92, (R)—N-(1-(dimethylamino)-3-phenylpropan-2-yl)-4-(5-(trifluoromethyl)-1,2,4-oxadiazol-3-yl)benzamide], the IC50 at Human recombinant HDAC4 is 0.085 µM; in experiment [1], 4 µM; in experiment [2], more than 6.8 µM.
As to `CCCN(C)C[C@@H](C)NC(=O)c1ccc(-c2noc(C(F)(F)F)n2)cc1F` [Example 143, (R)-2-fluoro-N-(1-(methyl(propyl)amino)propan-2-yl)-4-(5-(trifluoromethyl)-1,2,4-oxadiazol-3-yl)benzamide], the half-maximal inhibitory concentration (IC50) stood at 0.0012 µM on Human recombinant HDAC4, 3.3 µM in experiment [1] and 5.8 µM in experiment [2].
As for `CCN(C)C(=O)c1ccc(-c2noc(C(F)(F)F)n2)cc1` [Example 14, N-ethyl-N-methyl-4-(5-(trifluoromethyl)-1,2,4-oxadiazol-3-yl)benzamide], the IC50 at Human recombinant HDAC4 was 0.9 µM; in experiment [1], more than 10 µM; in experiment [2] it was more than 10 µM.
Turning to `CN1CCC(CNC(=O)c2ccc(-c3noc(C(F)(F)F)n3)cc2)CC1` [Example 49, N-((1-methylpiperidin-4-yl)methyl)-4-(5-(trifluoromethyl)-1,2,4-oxadiazol-3-yl)benzamide], the IC50 on Human recombinant HDAC4 was 0.99 µM; in experiment [1], more than 10 µM; in experiment [2] it was more than 10 µM.
`C[C@H](CN1CCCC1)NC(=O)c1ccc(-c2noc(C(F)(F)F)n2)cc1F` [Example 128, (R)-2-fluoro-N-(1-(pyrrolidin-1-yl)propan-2-yl)-4-(5-(trifluoromethyl)-1,2,4-oxadiazol-3-yl)benzamide]: the IC50 was 0.026 µM at Human recombinant HDAC4, 4.5 µM in experiment [1] and more than 10 µM in experiment [2].
As for `CC(C)N(C)C[C@@H](C)NC(=O)c1ccc(-c2noc(C(F)(F)F)n2)cc1F` [Example 142, (R)-2-fluoro-N-(1-(isopropyl(methyl)amino)propan-2-yl)-4-(5-(trifluoromethyl)-1,2,4-oxadiazol-3-yl)benzamide], the IC50 on Human recombinant HDAC4 is 0.0072 µM; in experiment [1], 5.4 µM; in experiment [2], more than 10 µM.
